Results from patent US4192896A, “Method of using dialkylphenols in the treatment of mycoplasma diseases” (priority 1979, dated 1980).

Key:
[1] = system: uninfected hamster tracheal explants; assay: Electron microscopic and histopathic examination of uninfected hamster tracheal explants exposed to 2,4-DMP; assay type: cell-based, golden hamster; conditions: 10^-3 and 10^-4 M
Procedure: (§1) Adult golden hamsters (approximately 140 g. male and female) were used as the tissue source. Animals appearing to be disease-free were selected. Tracheas were removed aseptically and sliced into rings. The rings were rinsed and then transfered into sterile Petri dishes containing a shallow layer of minimal essential medium (MEM, with glutamine, NaHCO3, 10% horse serum and 500 units of penicillin G/ml). These organ cultures were incubated for 24 hours at 36° C. in 5% carbon dioxide and then scored for "relative activity" (RA), a measure of explant viability. "Relative Activity" (0 to 300) is the product of the percentage of the epithelial layer which is intact (0 to 100) and the relative vigor of ciliary beating (0 to 3).

[2] = system: M. pneumoniae; assay: Surface morphology of tracheal rings exposed to M. pneumoniae; assay type: cell-based; conditions: at least 10^-9 M
Procedure: (§2) The trachea rings were infected with M. pneumonia, strain PI 1428 (originally obtained from Dr. Robert Chanock, National Institutes of Health, Bethesda, Md.) which was used in the 10th to 12th passage and was grown on G-199 medium. Tracheal explants were infected with logarithmically growing cells using methods described by Gabridge, et al. Except where otherwise noted, groups of from 3 to 6 rings were preincubated for one hour in MEM with or without an appropriate amount of 2,4-dimethylphenol prior to the addition of mycoplasmas. Following exposure to M. pneumoniae for two hours, the rings were rinsed twice in phosphate buffered saline and then placed in a sterile Petri dish containing MEM and, where indicated, the required amount of 2,4-dimethylphenol or 2,4-DMP as used herein. Cultures were incubated at 36° in 5% carbon dioxide and scored daily for RA.
(§3) Infection Studies: M. pneumoniae attaches to the surface (as used herein the surface refers to in luminal epithelial lining) of the tracheal tissue within an hour or two following exposure. Decreases in the vigor of ciliary activity and loss of epithelial cells are evident within 24 to 48 hours post-infection. In most cases, little or no ciliary activity remains by the sixth or seventh day.

[3] = system: M. pneumoniae; assay: Protection of tracheal explants against the M. pneumoniae infective process (overall, in words); assay type: cell-based
Procedure: as §1, §2
(§4) Time Course: In the studies reported thus far, tracheal explants were pretreated with 2,4-DMP for one hour before exposure to M. pneumoniae. Some insight into the nature, that is, the site or mode of action, of this protective phenomenon may be gained by altering the time at which 2,4-DMP is added to the culture media.

[4] = system: M. pneumoniae; assay: Relative activity of hamster tracheal explants infected with M. pneumoniae; assay type: cell-based; conditions: for Relative Activity Days Following Infection With M. Pneumoniae / Relative Activity 7 days post infection: infecting titer 6 × 10^6 CFU/ml; for Relative Activity 7 days post infection: Table 4
Procedure: as §1, §2, §3, §4

[5] = system: M. pneumoniae; assay: Tetrazolium reduction by hamster tracheal explants infected with M. pneumoniae; assay type: cell-based; conditions: for Tetrazolium Reduction 7 days post infection: Table 4, infecting titer 6 × 10^6 CFU/ml
Procedure: as §2, §4

[6] = system: uninfected hamster tracheal explants; assay: Relative activity (explant viability: epithelial integrity x ciliary vigor) of uninfected hamster tracheal explants exposed to 2,4-DMP (toxicity); assay type: cell-based, golden hamster; conditions: for Relative activity following days of incubation with 2,4-DMP: uninfected explants, scale 0 to 300
Procedure: as §1
Before undertaking further studies the determination of the toxicity of 2,4-DMP toward hamster tracheal explants and Mycoplasma pneumoniae is necessary.

[7] = system: M. pneumoniae; assay: Growth of logarithmically growing cultures of M. pneumoniae in liquid culture with 2,4-DMP (CFU/ml); assay type: cell-based, Mycoplasma pneumoniae, strain PI 1428
[8] = culture A, 2,4 DMP added at -1 hours
[9] = culture B, 2,4 DMP added at 0 hours
[10] = culture C, 2,4 DMP added at 1 hours
[11] = culture D, 2,4 DMP added at 2 hours
[12] = culture E, 2,4 DMP added at 6 hours
[13] = culture F, 2,4 DMP added at 24 hours
[14] = culture G, 2,4 DMP added at 48 hours
[15] = culture H, 2,4 DMP added at 72 hours

Cc1ccc(O)c(C)c1 [2,4-DMP, 2,4-dimethylphenol]
electron microscopic and histopathic examination of epithelium [1]: destruction of their epithelium | surface morphology of rings exposed to M. pneumoniae compared with uninfected controls [2]: indistinguishable from uninfected controls | protective effects on delayed addition ([3]; 2,4-DMP withheld until attachment is essentially complete): significantly reduced or abolished completely | alteration of the infectious process ([3]; concentrations less than or equal to 10^-10 M): failed to alter the infectious process | inhibiting or altering the course of the infective process, relative to the other dimethylphenol isomers ([3]; conditions of these studies and at the concentrations tested): more effective than any of the other isomers | effect on the course of infection of explants exposed to M. pneumoniae ([3]; very low concentrations in the culture media): dramatically alters the usual course of events | Relative Activity Days Following Infection With M. Pneumoniae ([4]; 10^-8 moles/liter, day 1): 270 ± 0 | Relative Activity Days Following Infection With M. Pneumoniae ([4]; 10^-8 moles/liter, day 2): 270 ± 0 | Relative Activity Days Following Infection With M. Pneumoniae ([4]; 10^-8 moles/liter, day 3): 260 ± 16 | Relative Activity Days Following Infection With M. Pneumoniae ([4]; 10^-8 moles/liter, day 4): 260 ± 16 | Relative Activity Days Following Infection With M. Pneumoniae ([4]; 10^-8 moles/liter, day 5): 260 ± 16 | Relative Activity Days Following Infection With M. Pneumoniae ([4]; 10^-8 moles/liter, day 6): 255 ± 16 | Relative Activity Days Following Infection With M. Pneumoniae ([4]; 10^-8 moles/liter, day 7): 255 ± 16 | Relative Activity Days Following Infection With M. Pneumoniae ([4]; 10^-10 moles/liter, day 1): 260 ± 16 | Relative Activity Days Following Infection With M. Pneumoniae ([4]; 10^-10 moles/liter, day 2): 255 ± 16 | Relative Activity Days Following Infection With M. Pneumoniae ([4]; 10^-10 moles/liter, day 3): 240 ± 19 | Relative Activity Days Following Infection With M. Pneumoniae ([4]; 10^-10 moles/liter, day 4): 175 ± 23 | Relative Activity Days Following Infection With M. Pneumoniae ([4]; 10^-10 moles/liter, day 5): 150 ± 19 | Relative Activity Days Following Infection With M. Pneumoniae ([4]; 10^-10 moles/liter, day 6): 135 ± 16 | Relative Activity Days Following Infection With M. Pneumoniae ([4]; 10^-10 moles/liter, day 7): 115 ± 23 | Relative Activity 7 days post infection ([4]; 10^-6 moles/liter): 255 ± 16 | Relative Activity 7 days post infection ([4]; 10^-7 moles/liter): 255 ± 16 | Relative Activity 7 days post infection ([4]; 10^-8 moles/liter): 260 ± 10 | Relative Activity 7 days post infection ([4]; 10^-9 moles/liter): 263 ± 12 | Relative Activity 7 days post infection ([4]; 10^-10 moles/liter): 114 ± 22 | Relative Activity 7 days post infection ([4]; 10^-14 moles/liter): 125 ± 23 | Relative Activity 7 days post infection [4]: 124 ± 18 | RA of rings exposed to M. pneumoniae compared with uninfected controls ([4]; at least 10^-9 M): indistinguishable from uninfected controls | Relative Activity 7 Days Following Infection With M. Pneumoniae [4, 8]: 268 ± 6 | Relative Activity 7 Days Following Infection With M. Pneumoniae [4, 9]: 268 ± 6 | Relative Activity 7 Days Following Infection With M. Pneumoniae [4, 10]: 265 ± 8 | Relative Activity 7 Days Following Infection With M. Pneumoniae [4, 11]: 220 ± 23 | Relative Activity 7 Days Following Infection With M. Pneumoniae [4, 12]: 188 ± 23 | Relative Activity 7 Days Following Infection With M. Pneumoniae [4, 13]: 98 ± 16 | Relative Activity 7 Days Following Infection With M. Pneumoniae [4, 14]: 95 ± 12 | Relative Activity 7 Days Following Infection With M. Pneumoniae [4, 15]: 92 ± 15 | Tetrazolium Reduction 7 days post infection ([5]; 10^-8 moles/liter): 1.066 ± 0.035 | Tetrazolium Reduction 7 days post infection ([5]; 10^-9 moles/liter): 1.016 ± 0.029 | Tetrazolium Reduction 7 days post infection ([5]; 10^-10 moles/liter): 0.543 ± 0.142 | Tetrazolium Reduction 7 days post infection ([5]; 10^-22 moles/liter (so in the source)): 0.453 ± 0.033 | ability to reduce tetrazolium of rings exposed to M. pneumoniae compared with uninfected controls ([5]; at least 10^-9 M): indistinguishable from uninfected controls | Tetrazolium Reduction 7 Days Following Infection With M. Pneumoniae [5, 8]: 1.071 ± 0.065 OD/mg | Tetrazolium Reduction 7 Days Following Infection With M. Pneumoniae [5, 9]: 1.068 ± 0.050 OD/mg | Tetrazolium Reduction 7 Days Following Infection With M. Pneumoniae [5, 10]: 1.062 ± 0.039 OD/mg | Tetrazolium Reduction 7 Days Following Infection With M. Pneumoniae [5, 11]: 0.893 ± 0.055 OD/mg | Tetrazolium Reduction 7 Days Following Infection With M. Pneumoniae [5, 12]: 0.722 ± 0.032 OD/mg | Tetrazolium Reduction 7 Days Following Infection With M. Pneumoniae [5, 13]: 0.386 ± 0.030 OD/mg | Tetrazolium Reduction 7 Days Following Infection With M. Pneumoniae [5, 14]: 0.379 ± 0.051 OD/mg | Tetrazolium Reduction 7 Days Following Infection With M. Pneumoniae [5, 15]: 0.381 ± 0.048 OD/mg | reductions in RAs of uninfected explants ([6]; 10^-3 and 10^-4 M): Significant reductions in RAs | overt cytotoxic effects in uninfected rings ([6]; 10^-5 M or less): no overt cytotoxic effects | Relative activity following days of incubation with 2,4-DMP ([6]; 10^-3 moles/liter, day 1): 210 ± 19 | Relative activity following days of incubation with 2,4-DMP ([6]; 10^-3 moles/liter, day 2): 155 ± 12 | Relative activity following days of incubation with 2,4-DMP ([6]; 10^-3 moles/liter, day 3): 105 ± 16 | Relative activity following days of incubation with 2,4-DMP ([6]; 10^-3 moles/liter, day 4): 75 ± 16 | Relative activity following days of incubation with 2,4-DMP ([6]; 10^-3 moles/liter, day 5): 55 ± 12 | Relative activity following days of incubation with 2,4-DMP ([6]; 10^-3 moles/liter, day 6): 50 ± 16 | Relative activity following days of incubation with 2,4-DMP ([6]; 10^-3 moles/liter, day 7): 50 ±16 | Relative activity following days of incubation with 2,4-DMP ([6]; 10^-4 moles/liter, day 1): 255 ± 16 | Relative activity following days of incubation with 2,4-DMP ([6]; 10^-4 moles/liter, day 2): 240 ± 33 | Relative activity following days of incubation with 2,4-DMP ([6]; 10^-4 moles/liter, day 3): 200 ± 49 | Relative activity following days of incubation with 2,4-DMP ([6]; 10^-4 moles/liter, day 4): 160 ± 45 | Relative activity following days of incubation with 2,4-DMP ([6]; 10^-4 moles/liter, day 5): 150 ± 27 | Relative activity following days of incubation with 2,4-DMP ([6]; 10^-4 moles/liter, day 6): 140 ± 24 | Relative activity following days of incubation with 2,4-DMP ([6]; 10^-4 moles/liter, day 7): 135 ± 16 | Relative activity following days of incubation with 2,4-DMP ([6]; 10^-5 moles/liter, day 1): 265 ± 12 | Relative activity following days of incubation with 2,4-DMP ([6]; 10^-5 moles/liter, day 2): 270 ± 0 | Relative activity following days of incubation with 2,4-DMP ([6]; 10^-5 moles/liter, day 3): 264 ± 13 | Relative activity following days of incubation with 2,4-DMP ([6]; 10^-5 moles/liter, day 4): 270 ± 0 | Relative activity following days of incubation with 2,4-DMP ([6]; 10^-5 moles/liter, day 5): 264 ± 13 | Relative activity following days of incubation with 2,4-DMP ([6]; 10^-5 moles/liter, day 6): 258 ± 16 | Relative activity following days of incubation with 2,4-DMP ([6]; 10^-5 moles/liter, day 7): 252 ± 16 | CFU/ml following days of culture ([7]; 10^-3 moles/liter, day 0): 2 × 10^4 CFU/ml | CFU/ml following days of culture ([7]; 10^-3 moles/liter, day 1): 5 × 10^4 CFU/ml | CFU/ml following days of culture ([7]; 10^-3 moles/liter, day 2): 6.3 × 10^4 CFU/ml | CFU/ml following days of culture ([7]; 10^-3 moles/liter, day 3): 6.5 × 10^4 CFU/ml | CFU/ml following days of culture ([7]; 10^-3 moles/liter, day 4): 6.7 × 10^4 CFU/ml | CFU/ml following days of culture ([7]; 10^-3 moles/liter, day 5): 4.1 × 10^4 CFU/ml | CFU/ml following days of culture ([7]; 10^-3 moles/liter, day 6): 3.3 × 10^4 CFU/ml | CFU/ml following days of culture ([7]; 10^-3 moles/liter, day 7): 1.5 × 10^4 CFU/ml | CFU/ml following days of culture ([7]; 10^-5 moles/liter, day 0): 2 × 10^4 CFU/ml | CFU/ml following days of culture ([7]; 10^-5 moles/liter, day 1): 1.2 × 10^5 CFU/ml | CFU/ml following days of culture ([7]; 10^-5 moles/liter, day 2): 7.5 × 10^6 CFU/ml | CFU/ml following days of culture ([7]; 10^-5 moles/liter, day 3): 2.5 × 10^7 CFU/ml | CFU/ml following days of culture ([7]; 10^-5 moles/liter, day 4): 6.0 × 10^7 CFU/ml | CFU/ml following days of culture ([7]; 10^-5 moles/liter, day 6): 1.5 × 10^7 CFU/ml | CFU/ml following days of culture ([7]; 10^-5 moles/liter, day 7): 4.3 × 10^6 CFU/ml | CFU/ml following days of culture ([7]; 10^-8 moles/liter, day 0): 2 × 10^4 CFU/ml | CFU/ml following days of culture ([7]; 10^-8 moles/liter, day 1): 1.5 × 10^5 CFU/ml | CFU/ml following days of culture ([7]; 10^-8 moles/liter, day 2): 7.2 × 10^6 CFU/ml | CFU/ml following days of culture ([7]; 10^-8 moles/liter, day 3): 2.4 × 10^7 CFU/ml | CFU/ml following days of culture ([7]; 10^-8 moles/liter, day 4): 6.3 × 10^7 CFU/ml | CFU/ml following days of culture ([7]; 10^-8 moles/liter, day 5): 5.2 × 10^7 CFU/ml | CFU/ml following days of culture ([7]; 10^-8 moles/liter, day 6): 1.1 × 10^7 CFU/ml | CFU/ml following days of culture ([7]; 10^-8 moles/liter, day 7): 4.2 × 10^6 CFU/ml | effect on mycoplasmal growth ([7]; higher concentrations (10^-3 M)): inhibit mycoplasmal growth | effect on growth of the organism ([7]; lower amounts (10^-5 M)): little or no effect on the growth of the organism
